Measurements reported in US20050197343A1, “Utilization of heteroarene carboxamide as dopamine-d3 ligands for the treatment of cns diseases” (priority 2002, published 2005).
Read-outs that look alike come from different tables or passages of the source.

Columns and labels:
[1] = biological target: T1, serotonin receptor 5-HT1A (Sus scrofa, UniProt A0A4X1UTF5); assay: radio ligand binding, pig cortex membrane preparations, [3H]8-OH-DPAT
T1 sequence (A0A4X1UTF5 1-422): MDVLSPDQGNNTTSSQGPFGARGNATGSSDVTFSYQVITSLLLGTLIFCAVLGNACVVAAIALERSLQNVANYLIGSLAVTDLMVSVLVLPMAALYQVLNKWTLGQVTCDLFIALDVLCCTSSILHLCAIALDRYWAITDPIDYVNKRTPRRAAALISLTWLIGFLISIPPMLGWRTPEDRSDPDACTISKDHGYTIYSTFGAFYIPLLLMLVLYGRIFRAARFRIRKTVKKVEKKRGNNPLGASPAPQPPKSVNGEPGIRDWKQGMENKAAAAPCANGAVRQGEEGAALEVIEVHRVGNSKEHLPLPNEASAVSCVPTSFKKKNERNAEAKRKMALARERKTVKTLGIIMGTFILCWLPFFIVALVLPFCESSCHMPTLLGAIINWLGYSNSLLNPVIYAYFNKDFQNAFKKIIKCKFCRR

[2] = biological target: T2, serotonin receptor 5-HT2 (Sus scrofa, UniProt P50129); assay: radio ligand binding, pig cortex membrane preparations, [3H]Ketanserin with 10 μM Prazosin; conditions: p5-HT2; simultaneous incubation with 10 μM of Prazosin
T2 construct: cortex membrane preparations of a pig; from tissue; host or cells: pig cortex

[3] = biological target: α1 receptors; assay: competitive experiment with the α1 selective radio ligand [3H]Prazosin; conditions: read-out: Ki values α1 (footnote d); pα1; competitive experiment with [3H]Prazosin
[4] = biological target: adrenergic receptor subtype α1; assay: radio ligand binding, pig cortex membranes, highly affine binding site on labelling with [3H]Ketanserin; conditions: read-out: Ki values α1 (footnote c); pα1; derived from the highly affine binding site on labelling with [3H]Ketanserin
[5] = biological target: T3, human D4.4 receptor (Homo sapiens, UniProt P21917); assay: radio ligand binding assay, CHO cell membrane homogenates, [3H]Spiperon, D4.4; conditions: for Ki: hD4.4, average of 2-9 experiments in triplicate
T3 construct: expressed in transfected cells; host or cells: CHO cells (membrane homogenates)
T3 sequence (P21917 1-419): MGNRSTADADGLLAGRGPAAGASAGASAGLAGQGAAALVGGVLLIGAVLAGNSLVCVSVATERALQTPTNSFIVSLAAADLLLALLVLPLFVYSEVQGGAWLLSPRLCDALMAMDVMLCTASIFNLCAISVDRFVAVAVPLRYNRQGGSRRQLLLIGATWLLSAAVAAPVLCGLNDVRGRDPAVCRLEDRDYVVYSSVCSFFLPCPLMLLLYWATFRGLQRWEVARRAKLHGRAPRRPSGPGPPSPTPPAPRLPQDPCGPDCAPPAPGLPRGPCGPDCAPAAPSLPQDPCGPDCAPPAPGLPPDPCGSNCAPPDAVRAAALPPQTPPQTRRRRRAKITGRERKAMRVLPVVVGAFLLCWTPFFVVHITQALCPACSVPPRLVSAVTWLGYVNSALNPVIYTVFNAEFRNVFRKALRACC
Procedure: (§1) The biological activities of the compounds of the invention were determined in radio ligand binding assays.

[6] = biological target: D3 receptor (Homo sapiens, UniProt P35462); assay: radio ligand binding assay, CHO cell membrane homogenates, [3H]Spiperon, D3; design: expressed in transfected cells; host or cells: CHO cells (membrane homogenates); conditions: for D3 selectivity D2long/D3 / D3 selectivity D2short/D3 / D3 selectivity D4.4/D3: ratio of Ki values
Procedure: as §1

[7] = biological target: T4, human D2short receptor (Homo sapiens, UniProt P14416); assay: radio ligand binding assay, CHO cell membrane homogenates, [3H]Spiperon, D2short; conditions: hD2short; average of 2-9 experiments in triplicate
T4 construct: expressed in transfected cells; host or cells: CHO cells (membrane homogenates)
Procedure: as §1

[8] = biological target: T5, human D2long receptor (Homo sapiens, UniProt P14416); assay: radio ligand binding assay, CHO cell membrane homogenates, [3H]Spiperon, D2long; conditions: hD2long; average of 2-9 experiments in triplicate
T5 construct: expressed in transfected cells; host or cells: CHO cells (membrane homogenates)
Procedure: as §1

[9] = biological target: T6, D1 receptor (Sus scrofa, UniProt P50130); assay: radio ligand binding assay, D1 receptor, pig striatum membrane homogenates, [3H]SCH 23390; conditions: pD1; average of 2-9 experiments in triplicate
T6 construct: native membrane homogenates obtained from the striatum of a pig; from tissue; host or cells: pig striatum
Procedure: as §1

[10] = read-out: Ki values 5-HT1A, p5-HT1A, [3H]8-OH-DPAT, average of 2 to 6 experiments
[11] = hD3, average of 2-9 experiments in triplicate, read-out: Ki-values D3

Chain of D3 receptor (P35462 whole entry): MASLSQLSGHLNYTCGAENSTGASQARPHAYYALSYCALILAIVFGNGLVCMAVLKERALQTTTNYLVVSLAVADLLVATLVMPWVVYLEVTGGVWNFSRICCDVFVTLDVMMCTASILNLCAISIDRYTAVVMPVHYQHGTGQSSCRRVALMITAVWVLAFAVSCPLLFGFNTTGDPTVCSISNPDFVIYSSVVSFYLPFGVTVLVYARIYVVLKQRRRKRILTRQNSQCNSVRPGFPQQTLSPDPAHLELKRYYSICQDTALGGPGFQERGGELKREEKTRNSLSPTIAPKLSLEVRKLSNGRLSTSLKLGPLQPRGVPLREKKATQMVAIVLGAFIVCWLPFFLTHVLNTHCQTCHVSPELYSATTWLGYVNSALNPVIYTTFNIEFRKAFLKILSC
T5 sequence (P14416 whole entry): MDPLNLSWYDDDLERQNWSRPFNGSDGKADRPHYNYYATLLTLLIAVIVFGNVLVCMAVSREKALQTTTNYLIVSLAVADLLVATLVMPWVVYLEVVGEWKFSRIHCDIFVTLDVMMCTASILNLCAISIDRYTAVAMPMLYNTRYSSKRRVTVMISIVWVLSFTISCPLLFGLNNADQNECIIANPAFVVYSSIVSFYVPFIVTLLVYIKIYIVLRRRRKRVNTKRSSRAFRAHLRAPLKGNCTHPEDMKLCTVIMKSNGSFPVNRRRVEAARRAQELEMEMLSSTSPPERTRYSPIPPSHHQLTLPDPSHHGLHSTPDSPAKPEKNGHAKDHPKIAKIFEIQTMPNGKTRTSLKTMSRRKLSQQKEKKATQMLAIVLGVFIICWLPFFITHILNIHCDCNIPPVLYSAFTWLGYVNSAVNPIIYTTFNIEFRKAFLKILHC
T4 sequence (P14416 1-414 isoform P14416-2): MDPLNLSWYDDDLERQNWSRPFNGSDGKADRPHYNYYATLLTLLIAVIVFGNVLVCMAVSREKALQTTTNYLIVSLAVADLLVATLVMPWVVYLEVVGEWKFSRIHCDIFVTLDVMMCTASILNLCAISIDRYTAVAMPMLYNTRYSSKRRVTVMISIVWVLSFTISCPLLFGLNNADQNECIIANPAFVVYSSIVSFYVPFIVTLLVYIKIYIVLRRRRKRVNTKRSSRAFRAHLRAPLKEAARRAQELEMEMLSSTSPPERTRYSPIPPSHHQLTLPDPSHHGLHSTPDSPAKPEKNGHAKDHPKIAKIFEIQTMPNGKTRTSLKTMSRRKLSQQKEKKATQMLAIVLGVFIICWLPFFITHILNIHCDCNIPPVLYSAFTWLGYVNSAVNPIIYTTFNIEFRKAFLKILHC
T2 sequence (P50129 whole entry): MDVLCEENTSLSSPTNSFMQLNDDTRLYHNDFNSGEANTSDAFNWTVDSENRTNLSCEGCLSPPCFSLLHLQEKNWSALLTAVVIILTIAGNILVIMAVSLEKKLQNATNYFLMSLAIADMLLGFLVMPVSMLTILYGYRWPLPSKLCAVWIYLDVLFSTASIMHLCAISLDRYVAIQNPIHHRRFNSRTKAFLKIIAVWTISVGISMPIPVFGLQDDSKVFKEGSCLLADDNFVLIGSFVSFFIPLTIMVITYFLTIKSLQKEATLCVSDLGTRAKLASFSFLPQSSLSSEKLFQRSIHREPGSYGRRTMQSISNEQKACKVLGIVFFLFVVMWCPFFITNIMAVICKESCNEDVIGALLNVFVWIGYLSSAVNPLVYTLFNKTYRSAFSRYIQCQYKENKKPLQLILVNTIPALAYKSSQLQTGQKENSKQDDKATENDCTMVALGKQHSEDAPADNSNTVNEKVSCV
T6 sequence (P50130 whole entry): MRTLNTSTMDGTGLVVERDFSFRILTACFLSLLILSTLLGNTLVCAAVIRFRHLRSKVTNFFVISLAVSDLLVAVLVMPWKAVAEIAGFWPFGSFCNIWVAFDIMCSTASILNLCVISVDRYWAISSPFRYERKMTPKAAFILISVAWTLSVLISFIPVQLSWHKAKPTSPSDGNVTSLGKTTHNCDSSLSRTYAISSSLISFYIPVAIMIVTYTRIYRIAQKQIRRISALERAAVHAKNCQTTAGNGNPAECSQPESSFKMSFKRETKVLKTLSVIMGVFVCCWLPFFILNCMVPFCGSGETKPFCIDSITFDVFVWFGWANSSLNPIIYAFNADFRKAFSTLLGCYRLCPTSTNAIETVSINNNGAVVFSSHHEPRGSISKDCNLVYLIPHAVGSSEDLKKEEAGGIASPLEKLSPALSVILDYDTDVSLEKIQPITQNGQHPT

For `COc1ccccc1N1CCN(CCCCNC(=O)c2cc3ccccc3[nH]2)CC1` [Example 24, N-4-(4-(2-methoxyphenyl)piperazine-1-yl)butyl-2-indolylcarbamide], the Ki [1] was 32 nM, the Ki [2] was 420 nM and the Ki [3] was 7.3 nM. For the same molecule, the Ki [4] was 11 nM.

In the case of “N-4-(4-(2-methoxyphenyl)piperazine-1 -yl)butyl-2-ferrocenylcarbamide [Example 16]”, the Ki [1, 10] is reported as 0.6 nM, the Ki [2] is reported as 500 nM and the “D4 affinity (in words)” value [5] is reported as “high D4 affinity”. For the same molecule, the Ki [3] was 30 nM.

For `N#Cc1ccc2cc(C(=O)NCCCCN3CCN(c4cccc(Cl)c4Cl)CC3)sc2c1` [Example 21, N-4-(4-(2,3-dichlorophenyl)piperazine-1-yl)butyl-6-cyano-2-benzo[b]thiophenylcarbamide], the Ki [1] was 110 nM, the Ki [6, 11] was 0.23 to 0.57 nM and the Ki [2] was 290 nM. The Ki [3] was 45 nM.

Molecule `N#Cc1ccc2sc(C(=O)NCCCCN3CCN(c4cccc(Cl)c4Cl)CC3)cc2c1` [Example 19, N-4-(4-(2,3-dichlorophenyl)piperazine-1-yl)butyl-5-cyan-2-benzo[b]thiophenylcarbamide] has a Ki [1, 10] of 190 nM, a Ki [2] of 280 nM and a Ki [3] of 230 nM.

For `COc1ccccc1N1CCN(CCCCNC(=O)c2cc3cc(Br)ccc3o2)CC1` [Example 5, N-4-(4-(2-methoxyphenyl)piperazine-1-yl)butyl-5-brom-2-benzo[b]furanylcarbamide], the Ki [7] was 61 nM, the Ki [1, 10] was 68 nM and the Ki [6, 11] was 0.69 nM. For the same molecule, the “D3 selectivity D2long/D3” value [6] was 140, the “D3 selectivity D2short/D3” value [6] was 88 and the “D3 selectivity D4.4/D3” value [6] was 25. The Ki [2] was 140 nM, the Ki [8] was 96 nM and the Ki [5] was 17 nM. The Ki [9] was 590 nM and the Ki [3] was 5.3 nM.

With `O=C(NCCCCN1CCN(c2cccc(Cl)c2Cl)CC1)c1cc2ccccc2[nH]1` [Example 10, N-4-(4-(2,3-dichlorophenyl)piperazine-1-yl)butyl-2-indolylcarbamide] the Ki [1] was 610 nM, the “D3 affinity (in words)” value [6] was “subnanomolar affinity” and the Ki [6, 11] was 0.23 to 0.57 nM. The Ki [3] was 220 nM.

Molecule `COc1ccccc1N1CCN(CCCCNC(=O)c2cc3ccc(C#N)cc3[nH]2)CC1` [Example 13, N-4-(4-(2-methoxyphenyl)piperazine-1-yl)butyl-6-cyan-2-indolylcarbamide] has a Ki [1] of 47 nM, a Ki [6, 11] of 0.23 to 0.57 nM and a Ki [2] of 220 nM. For the same molecule, the Ki [3] was 4.3 nM.

In the case of `COc1ccccc1N1CCN(CCCCNC(=O)c2cc3ccccc3[te]2)CC1` [Example 8, N-4-(4-(2-methoxyphenyl)piperazine-1-yl)butyl-2-benzo[b]tellurophenylcarbamide], the Ki [1] is reported as 69 nM, the Ki [6] is reported as 0.72 nM and the Ki [2] is reported as 420 nM. The Ki [3] was 3.5 nM.

In the case of `COc1ccccc1N1CCN(CCCCNC(=O)c2cc3cc(C#N)ccc3s2)CC1` [Example 18, N-4-(4-(2-methoxyphenyl)piperazine-1-yl)butyl-5-cyano-2-benzo[b]thiophenylcarbamide], the Ki [1] is reported as 54 nM, the Ki [2] is reported as 580 nM and the Ki [3] is reported as 2.9 nM.

Work on `O=C(NCCCCN1CCN(c2cccc(Cl)c2Cl)CC1)c1cc2cc(Br)ccc2[nH]1` [Example 14, N-4-(4-(2,3-dichlorophenyl)piperazine-1-yl)butyl-5-brom-2-indolylcarbamide] yielded a Ki [1, 10] of 1600 nM, a Ki [2] of 690 nM and a Ki [3] of 500 nM.

`O=C(NCCCCN1CCN(c2cccc(Cl)c2Cl)CC1)c1cc2ccccc2o1` [Example 4, N-4-(4-(2,3-dichlorophenyl)piperazine-1-yl)butyl-2-benzo[b]furanylcarbamide] gave a Ki [6, 11] of 1.2 nM and a Ki [3] of 160 nM.

Work on `COc1ccccc1N1CCN(CCCCNC(=O)c2cc3cc(C#N)ccc3[nH]2)CC1` [Example 11, N-4-(4-(2-methoxyphenyl)piperazine-1-yl)butyl-5-cyan-2-indolylcarbamide] yielded a Ki [1] of 83 nM, a Ki [6, 11] of 0.23 to 0.57 nM and a Ki [2] of 440 nM. It also gave a Ki [3] of 5.9 nM and a Ki [4] of 24 nM.

`COc1ccccc1N1CCN(CCCCNC(=O)c2cc3cc(Br)ccc3[nH]2)CC1` [Example 12, N-4-(4-(2-methoxyphenyl)piperazine-1-yl)butyl-5-bromo-2-indolylcarbamide] was tested, and the Ki [1] was 440 nM, the Ki [6, 11] was 0.23 to 0.57 nM and the Ki [2] was 280 nM. It also gave a Ki [3] of 6.4 nM.

With `O=C(NCCCCN1CCN(c2cccc(Cl)c2Cl)CC1)c1cc2cc(Br)ccc2s1` [Example 23, N-4-(4-(2,3-dichlorophenyl)piperazine-1-yl)butyl-5-brom-2-benzo[b]thiophenylcarbamide] the Ki [1, 10] was 430 nM, the Ki [2] was 14000 nM and the Ki [3] was 320 nM.

`COc1ccccc1N1CCN(CCCCNC(=O)c2cc3ccccc3o2)CC1` [Example 3, N-4-(4-(2-methoxyphenyl)piperazine-1-yl)butyl-2-benzo[b]furanylcarbarnide] was tested, and the Ki [5] was 30 nM, the Ki [3] was 3.3 nM and the Ki [4] was 14 nM.

`O=C(NCCCCN1CCN(c2cccc(Cl)c2Cl)CC1)c1cc2ccccc2[te]1` [Example 9, N-4-(4-(2,3-dichlorophenyl)piperazine-1-yl)butyl-2-benzo[b]tellurophenylcarbamide] was tested, and the Ki [7] was 48 nM, the Ki [1, 10] was 130 nM and the Ki [6, 11] was 0.55 nM. For the same molecule, the “D3 selectivity D2long/D3” value [6] was 170, the “D3 selectivity D2short/D3” value [6] was 87 and the “D3 selectivity D4.4/D3” value [6] was 270. It also gave a Ki [2] of 730 nM, a Ki [8] of 91 nM and a Ki [5] of 150 nM. It also gave a Ki [9] of 1400 nM and a Ki [3] of 100 nM.

For `COc1ccccc1N1CCN(CCCCNC(=O)c2cc3ccc(C#N)cc3s2)CC1` [Example 20, N-4-(4-(2-methoxyphenyl)piperazine-1-yl)butyl-6-cyano-2-benzo[b]thiophenylcarbamide], the Ki [1] was 71 nM, the Ki [6, 11] was 0.23 to 0.57 nM and the Ki [2] was 660 nM. The Ki [3] was 8.3 nM.

`N#Cc1ccc2[nH]c(C(=O)NCCCCN3CCN(c4cccc(Cl)c4Cl)CC3)cc2c1` [Example 25, N-4-(4-(2,3-dichlorophenyl)piperazine-1-yl)butyl-5-cyano-2-indolylcarbamide] was tested, and the Ki [1, 10] was 190 nM, the Ki [2] was 220 nM and the Ki [3] was 220 nM.

In the case of `COc1ccccc1N1CCN(CCCCNC(=O)c2cc3cc(Br)ccc3s2)CC1` [Example 22, N-4-(4-(2-methoxyphenyl)piperazine-1-yl)butyl-5-brom-2-benzo[b]thiophenylcarbamide], the Ki [1, 10] is reported as 180 nM, the Ki [2] is reported as 760 nM and the Ki [3] is reported as 2.5 nM.

Molecule `O=C(NCCCCN1CCN(c2cccc(Cl)c2Cl)CC1)c1cc2ccccc2s1` [Example 2, N-4-(4-(2,3-dichlorophenyl)piperazine-1-yl)butyl-2-benzo[b]thiophenylcarbamide] has a Ki [3] of 370 nM.

`N#Cc1ccc2cc(C(=O)NCCCCN3CCN(c4cccc(Cl)c4Cl)CC3)[nH]c2c1` [Example 15, N-4-(4-(2,3-dichlorophenyl)piperazine-1-yl)butyl-6-cyano-2-indolylcarbamide] was tested, and the Ki [1, 10] was 390 nM, the Ki [2] was 320 nM and the Ki [3] was 2000 nM.

`COc1ccccc1N1CCN(CCCCNC(=O)c2cc3cc(C#N)ccc3o2)CC1` [Example 7, N-4-(4-(2-methoxyphenyl)piperazine-1-yl)butyl-5-cyano-2-benzo[b]furanylcarbamide] was tested, and the Ki [7] was 89 nM, the Ki [1] was 37 nM and the Ki [6, 11] was 4.2 nM. For the same molecule, the Ki [2] was 390 nM, the Ki [8] was 130 nM and the Ki [5] was 57 nM. The Ki [3] was 11 nM and the Ki [4] was 8.2 nM.

“N-4-(4-(2, 3-dichlorophenyl)piperazine-1 -yl)butyl-2-ferrocenylcarbamide [Example 17]” showed a Ki [1, 10] of 27 nM, a Ki [6, 11] of 0.47 nM and a Ki [2] of 250 nM. For the same molecule, the “D4 affinity (in words)” value [5] was “high D4 affinity”, the Ki [5] was 0.63 nM and the Ki [3] was 73 nM.
